Test results: US20240294548A1, “TRICYCLIC SULTAMS AND SULFAMIDES AS ANTITUMOR AGENTS” (PELOTON THERAPEUTICS INC., priority 2021, published 2024)

Assays:
[1] = molecular target: T1, DCAF15 RBM39 ternary complex (Homo sapiens, UniProt Q14498+Q66K64, DEL276-383); experiment: DCAF15 RBM39 complex formation assay (FRET); assay type: biochemical; settings: FRET ratio, 20 nM DDB1DB/DCAF15, 50 nM RBM39 R1R2, overnight at 4° C.; read-out: DCAF15 RBM39 ternary complex EC50
T1 construct: Amino acids 150 to 331 of RBM39 were cloned into pGEX4T3; GST (from the pGEX4T3 vector, own knowledge) followed by a TEV cleavage site (N); made in house; host or cells: Sf9 baculovirus (DDB1ΔB/DCAF15); E. coli (RBM39 R1R2)
T1 sequence (Q66K64 with tags, fused parts or gaps DEL276-383): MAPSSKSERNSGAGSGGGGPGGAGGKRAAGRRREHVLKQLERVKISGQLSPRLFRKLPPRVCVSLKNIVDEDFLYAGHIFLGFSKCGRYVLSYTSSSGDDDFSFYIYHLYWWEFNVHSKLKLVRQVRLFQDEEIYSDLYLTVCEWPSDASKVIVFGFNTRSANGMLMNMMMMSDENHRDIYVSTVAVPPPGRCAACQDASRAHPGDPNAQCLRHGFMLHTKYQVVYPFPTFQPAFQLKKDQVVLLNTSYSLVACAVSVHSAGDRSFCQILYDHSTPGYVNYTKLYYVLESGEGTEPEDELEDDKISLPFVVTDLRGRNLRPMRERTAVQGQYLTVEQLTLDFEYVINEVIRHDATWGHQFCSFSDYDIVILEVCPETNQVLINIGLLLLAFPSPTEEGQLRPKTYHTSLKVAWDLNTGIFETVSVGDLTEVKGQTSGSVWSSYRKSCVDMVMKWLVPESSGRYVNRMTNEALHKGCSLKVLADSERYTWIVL
T1 sequence (Q14498 150-331, stated change not applied): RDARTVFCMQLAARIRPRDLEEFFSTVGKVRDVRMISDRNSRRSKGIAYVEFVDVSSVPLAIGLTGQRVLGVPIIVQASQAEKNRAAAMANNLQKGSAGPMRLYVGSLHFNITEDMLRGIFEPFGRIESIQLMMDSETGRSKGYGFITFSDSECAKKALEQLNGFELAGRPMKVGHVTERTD
In short: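 Mix of 20 nM DDB1DB/DCAF15, 50 nM RBM39 R1R2, 0.2 nM Eu-anti-6×His and 50 nM APC-anti-FLAG (25 mM HEPES pH 7.5, 100 mM NaCl). Compounds, 1 μM down in 3-fold steps over 14 points, kept overnight at 4 °C.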

[2] = test system: HCT116 human colorectal carcinoma cells; experiment: CellTiter-Glo assay (cell viability); assay type: cell-based; settings: HCT-116, 72 h, HCT116 cells, 3 days, CellTiter-Glo luminescence, read-out: CTG IC50
Procedure: HCT116 human colorectal carcinoma cells were used in these experiments. HCT116 cells were obtained from ATCC. CellTiter-Glo® Luminescent Cell Viability Assay Reagent was obtained from Promega.
About 3,000 cells were seeded into 96-well plate with 100 μL of media (DMEM supplemented with 10% FBS, 100 units penicillin, and […] streptomycin per mL) the day before the experiment. For compound treatment, the master plate was prepared as follows: 100× compound stocks were prepared in a 96-well plate by 1 to 3 serial dilutions of 0.5 mM DMSO stocks. Each master plate contained serial dilution of 8 compounds, including the control compound E7820. […] of 100× compound stock was added to each well of the assay plate to give final concentrations of […]. Each concentration was tested in triplicate. After 3 days, cell viability was determined using CellTiter-Glo Luminescent Cell Viability Assay Reagent following the manufacturer's recommended protocol. Briefly, […] of CellTiter-Glo reagent was added to each well of the assay plate and the contents were mixed for 3 minutes at 600 rpm on a shaker (Thermomixer R). The plate was immediately placed in a plate reader (Synergy 2) and the luminescence signal (0.5 second per well integration time) was determined. IC50 values were calculated using Dotmatics software.

[3] = molecular target: T2, DCAF15 (DDA1-DDB1ΔB-DCAF15Δpro) (Homo sapiens, UniProt Q66K64, DEL276-383); experiment: DCAF15 displacement assay (displacement FRET, probe PT7795); assay type: binding; settings: displacement of PT7795 (300 nM), compound 0.01 to 100 μM, 18 hours incubation; read-out: DCAF15 displacement IC50
T2 construct: made in house; host or cells: Sf9 (Bac-to-Bac baculovirus)

| Structure (SMILES) | EC50 [1] | IC50 [2] | IC50 [3] |
| --- | --- | --- | --- |
| Cc1nnc(CN2Cc3cc(Cl)c4c(Cl)c[nH]c4c3NS2(=O)=O)o1 [Compound 36, 6,7-dichloro-3-((5-methyl-1,3,4-oxadiazol-2-yl)methyl)-1,3,4,9-tetrahydro-[1,2,6] thiadiazino[4,3-g]indole 2,2-dioxide] | 2.1 nM | 236 nM | 963 nM |
| Cn1cnc(CN2Cc3cc(Cl)c4c(Cl)c[nH]c4c3NS2(=O)=O)n1 [Compound 37, 6,7-dichloro-3-((1-methyl-1H-1,2,4-triazol-3-yl)methyl)-1,3,4,9-tetrahydro-[1,2,6] thiadiazino[4,3-g]indole 2,2-dioxide] | 2.5 nM | 568 nM | 2000 nM |
| Cn1ncnc1CN1Cc2cc(Cl)c3c(Cl)c[nH]c3c2NS1(=O)=O [Compound 38, 6,7-dichloro-3-((1-methyl-1H-1,2,4-triazol-5-yl)methyl)-1,3,4,9-tetrahydro-[1,2,6] thiadiazino[4,3-g]indole 2,2-dioxide] | 1.3 nM | 262 nM | 458 nM |
| O=S1(=O)Nc2c(cc(Cl)c3c(Cl)c[nH]c23)CN1CC1CCNCC1 [Compound 39, 6,7-dichloro-3-(piperidin-4-ylmethyl)-1,3,4,9-tetrahydro-[1,2,6]thiadiazino[4,3-g]indole 2,2-dioxide] | 1.2 nM | 4990 nM | 285 nM |
| CC(=O)NCCN1Cc2cc(Cl)c3c(Cl)c[nH]c3c2NS1(=O)=O [Compound 40, N-(2-(6,7-dichloro-2,2-dioxido-4,9-dihydro-[1,2,6]thiadiazino[4,3-g]indol-3(1H)-yl)ethyl) acetamide] | 1.6 nM | 537 nM | 1560 nM |
| CN(C)CCN1Cc2cc(Cl)c3c(Cl)c[nH]c3c2NS1(=O)=O [Compound 41, 6,7-dichloro-3-(2-(dimethylamino)ethyl)-1,3,4,9-tetrahydro-[1,2,6] thiadiazino[4,3-g]indole 2,2-dioxide] | 10.6 nM | 183 nM | 17500 nM |
| O=S1(=O)Nc2c(cc(Cl)c3c(Cl)c[nH]c23)CN1Cc1cccnn1 [Compound 42, 6,7-dichloro-3-(pyridazin-3-ylmethyl)-1,3,4,9-tetrahydro-[1,2,6]thiadiazino[4,3-g]indole 2,2-dioxide] | 0.7 nM | 298 nM | 588 nM |
| Cn1cc(CN2Cc3cc(Cl)c4c(Cl)c[nH]c4c3NS2(=O)=O)cn1 [Compound 43, 6,7-dichloro-3-((1-methyl-1H-pyrazol-4-yl)methyl)-1,3,4,9-tetrahydro-[1,2,6] thiadiazino[4,3-g]indole 2,2-dioxide] | 2.7 nM | 246 nM | 1050 nM |
| O=S1(=O)Nc2c(cc(Cl)c3c(Cl)c[nH]c23)CN1CC1CCOCC1 [Compound 44, 6,7-dichloro-3-((tetrahydro-2H-pyran-4-yl)methyl)-1,3,4,9-tetrahydro-[1,2,6] thiadiazino[4,3-g]indole 2,2-dioxide] | 1.8 nM | 62.2 nM | 276 nM |
| CC(=O)N1CCC(CN2Cc3cc(Cl)c4c(Cl)c[nH]c4c3NS2(=O)=O)CC1 [Compound 45, 1-(4-((6,7-dichloro-2,2-dioxido-4,9-dihydro-[1,2,6]thiadiazino[4,3-g]indol-3(1H)-yl)methyl)piperidin-1-yl)ethan-1-one] | 1.6 nM | 52.8 nM | 127 nM |
| N#Cc1ccccc1CN1Cc2cc(Cl)c3c(Cl)c[nH]c3c2NS1(=O)=O [Compound 46, 2-((6,7-dichloro-2,2-dioxido-4,9-dihydro-[1,2,6]thiadiazino[4,3-g]indol-3(1H)-yl)methyl) benzonitrile] | 1.6 nM | 278 nM | 294 nM |
| CC(=O)N1CC(CN2Cc3cc(Cl)c4c(Cl)c[nH]c4c3NS2(=O)=O)C1 [Compound 47, 1-(3-((6,7-dichloro-2,2-dioxido-4,9-dihydro-[1,2,6]thiadiazino[4,3-g]indol-3(1H)-yl)methyl)azetidin-1-yl) ethan-1-one] | 0.4 nM | 393 nM | 390 nM |
| Cc1ccc(CN2Cc3cc(Cl)c4c(Cl)c[nH]c4c3NS2(=O)=O)cn1 [Compound 48, 6,7-dichloro-3-((6-methylpyridin-3-yl)methyl)-1,3,4,9-tetrahydro-[1,2,6] thiadiazino[4,3-g]indole 2,2-dioxide] | 0.6 nM | 259 nM | 623 nM |
| O=S1(=O)Nc2c(cc(Cl)c3c(Cl)c[nH]c23)CN1Cc1ccc(C(F)(F)F)nc1 [Compound 49, 6,7-dichloro-3-((6-(trifluoromethyl)pyridin-3-yl)methyl)-1,3,4,9-tetrahydro-[1,2,6] thiadiazino[4,3-g]indole 2,2-dioxide] | 0.7 nM | 2250 nM | 8390 nM |
| N#Cc1ccc(CN2Cc3cc(Cl)c4c(Cl)c[nH]c4c3NS2(=O)=O)cc1 [Compound 50, 4-((6,7-dichloro-2,2-dioxido-4,9-dihydro-[1,2,6]thiadiazino[4,3-g]indol-3(1H)-yl)methyl) benzonitrile] | 1.1 nM | 881 nM | 5710 nM |
| N#Cc1cccc(CN2Cc3cc(Cl)c4c(Cl)c[nH]c4c3NS2(=O)=O)c1 [Compound 51, 3-((6,7-dichloro-2,2-dioxido-4,9-dihydro-[1,2,6]thiadiazino[4,3-g]indol-3(1H)-yl)methyl) benzonitrile] | 1.5 nM | 283 nM | 4410 nM |
| O=S1(=O)Nc2c(cc(Cl)c3c(Cl)c[nH]c23)CN1Cc1ccncn1 [Compound 52, 6,7-dichloro-3-(pyrimidin-4-ylmethyl)-1,3,4,9-tetrahydro-[1,2,6] thiadiazino[4,3-g]indole 2,2-dioxide] | 0.6 nM | 93.7 nM | 580 nM |
| O=S1(=O)Nc2c(cc(Cl)c3c(Cl)c[nH]c23)CN1Cc1ccc(C(F)F)nc1 [Compound 53, 6,7-dichloro-3-((6-(difluoromethyl)pyridin-3-yl)methyl)-1,3,4,9-tetrahydro-[1,2,6]thiadiazino [4,3-g]indole 2,2-dioxide] | 3.4 nM | 394 nM | 4280 nM |
| O=S1(=O)Nc2c(cc(Cl)c3c(Cl)c[nH]c23)CN1Cc1cnccc1Cl [Compound 54, 6,7-dichloro-3-((4-chloropyridin-3-yl)methyl)-1,3,4,9-tetrahydro-[1,2,6] thiadiazino[4,3-g]indole 2,2-dioxide] | 1.2 nM | 128 nM | 371 nM |
| Cc1ccncc1CN1Cc2cc(Cl)c3c(Cl)c[nH]c3c2NS1(=O)=O [Compound 55, 6,7-dichloro-3-((4-methylpyridin-3-yl)methyl)-1,3,4,9-tetrahydro-[1,2,6] thiadiazino[4,3-g]indole 2,2-dioxide] | 1.7 nM | 108 nM | 174 nM |
| O=S1(=O)Nc2c(cc(Cl)c3c(Cl)c[nH]c23)CN1Cc1cncc(Cl)c1 [Compound 56, 6,7-dichloro-3-((5-chloropyridin-3-yl)methyl)-1,3,4,9-tetrahydro-[1,2,6] thiadiazino[4,3-g]indole 2,2-dioxide] | 2.6 nM | 184 nM | 1440 nM |
| O=c1cccc(CN2Cc3cc(Cl)c4c(Cl)c[nH]c4c3NS2(=O)=O)[nH]1 [Compound 57, 6-((6,7-dichloro-2,2-dioxido-4,9-dihydro-[1,2,6]thiadiazino[4,3-g]indol-3(1H)-yl)methyl)pyridin-2(1H)-one] | 4 nM | 525 nM | 1000 nM |
